From patent US9012655B2, “Antimicrobial/adjuvant compounds and methods” (Denouamed, Inc., priority 2011, dated 2015)
≈ marks a conversion by molar mass, not a printed value.

Assays:
Assay type in all cases: cell-based
E. coli D22 = assay: MIC, NCCLS M7-A6 broth microdilution, E. coli D22; settings: Escherichia coli, D22, 16 to 20 h, 35 degrees Celsius
Procedure, shortened: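 Broth microdilution per NCCLS M7-A6 in cation-adjusted Mueller-Hinton broth, doubling dilutions, inoculum 5×10^5 CFU/mL, DMSO controls included. Read after 16–20 h at 35 °C in ambient air; MIC is lowest concentration preventing visible growth.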

Bacillus cereus NCTC6349 = assay: MIC panel of challenge pathogens (CLSI); settings: Bacillus cereus NCTC6349; for MIC: read-out: 100% inhibition; for MIC50: read-out: MIC50 (50%); for MIC80: read-out: MIC80 (80%)
Procedure, shortened: (§1)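 Broth microdilution per CLSI guidelines. Final inoculum 2-8×10^5 CFU/ml, compounds serially two-fold diluted from 128 mg/L top concentration. Incubated in the dark at 30-37° C for 24-48 h, aerobic or anaerobic as appropriate. MIC read visually as 100% inhibition endpoint; MIC50 and MIC80 also reported.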

[1] = test system: Enterococcus faecalis ATCC29212; assay: MIC panel of challenge pathogens (CLSI); settings: Enterococcus faecalis ATCC29212; for MIC: read-out: 100% inhibition; for MIC50: read-out: MIC50 (50%); for MIC80: read-out: MIC80 (80%)
Procedure, shortened: as §1

[2] = test system: Enterococcus faecium ATCC700221; assay: MIC panel of challenge pathogens (CLSI); settings: Enterococcus faecium ATCC700221; for MIC: read-out: 100% inhibition; for MIC50: read-out: MIC50 (50%); for MIC80: read-out: MIC80 (80%)
Procedure, shortened: as §1

[3] = test system: Staphylococcus aureus ATCC43300; assay: MIC panel of challenge pathogens (CLSI); settings: Staphylococcus aureus ATCC43300; for MIC: read-out: 100% inhibition; for MIC50: read-out: MIC50 (50%); for MIC80: read-out: MIC80 (80%)
Procedure, shortened: as §1

[4] = test system: Staphylococcus aureus AUR131 007035; assay: MIC panel of challenge pathogens (CLSI); settings: AUR131007035, Staphylococcus aureus AUR131 007035; for MIC: read-out: 100% inhibition; for MIC50: read-out: MIC50 (50%); for MIC80: read-out: MIC80 (80%)
Procedure, shortened: as §1

[5] = test system: Staphylococcus aureus AUR58 7005; assay: MIC panel of challenge pathogens (CLSI); settings: AUR587005, Staphylococcus aureus AUR58 7005; for MIC: read-out: 100% inhibition; for MIC50: read-out: MIC50 (50%); for MIC80: read-out: MIC80 (80%)
Procedure, shortened: as §1

[6] = test system: Staphylococcus aureus AUR59 7005; assay: MIC panel of challenge pathogens (CLSI); settings: AUR597005, Staphylococcus aureus AUR59 7005; for MIC: read-out: 100% inhibition; for MIC50: read-out: MIC50 (50%); for MIC80: read-out: MIC80 (80%)
Procedure, shortened: as §1

[7] = test system: Staphylococcus aureus AUR60 7005; assay: MIC panel of challenge pathogens (CLSI); settings: AUR607005, Staphylococcus aureus AUR60 7005; for MIC: read-out: 100% inhibition; for MIC50: read-out: MIC50 (50%); for MIC80: read-out: MIC80 (80%)
Procedure, shortened: as §1

[8] = test system: Staphylococcus aureus EUP MRSA002; assay: MIC panel of challenge pathogens (CLSI); settings: EUPMRSA002, Staphylococcus aureus EUP MRSA002; for MIC: read-out: 100% inhibition; for MIC50: read-out: MIC50 (50%); for MIC80: read-out: MIC80 (80%)
Procedure, shortened: as §1

[9] = test system: Staphylococcus aureus EUP MRSA004; assay: MIC panel of challenge pathogens (CLSI); settings: EUPMRSA004, Staphylococcus aureus EUP MRSA004; for MIC: read-out: 100% inhibition; for MIC50: read-out: MIC50 (50%); for MIC80: read-out: MIC80 (80%)
Procedure, shortened: as §1

[10] = test system: Staphylococcus aureus EUP SAU040; assay: MIC panel of challenge pathogens (CLSI); settings: EUPSAU040, Staphylococcus aureus EUP SAU040; for MIC: read-out: 100% inhibition; for MIC50: read-out: MIC50 (50%); for MIC80: read-out: MIC80 (80%)
Procedure, shortened: as §1

[11] = test system: Staphylococcus aureus NRS1 (ATCC700699); assay: MIC panel of challenge pathogens (CLSI); settings: Staphylococcus aureus NRS1 (ATCC700699); for MIC: read-out: 100% inhibition; for MIC50: read-out: MIC50 (50%); for MIC80: read-out: MIC80 (80%)
Procedure, shortened: as §1

[12] = test system: Staphylococcus aureus NRS2 (ATCC700698); assay: MIC panel of challenge pathogens (CLSI); settings: Staphylococcus aureus NRS2 (ATCC700698); for MIC: read-out: 100% inhibition; for MIC50: read-out: MIC50 (50%); for MIC80: read-out: MIC80 (80%)
Procedure, shortened: as §1

[13] = test system: Staphylococcus aureus NRS382; assay: MIC panel of challenge pathogens (CLSI); settings: Staphylococcus aureus NRS382; for MIC: read-out: 100% inhibition; for MIC50: read-out: MIC50 (50%); for MIC80: read-out: MIC80 (80%)
Procedure, shortened: as §1

[14] = test system: Staphylococcus aureus NRS384; assay: MIC panel of challenge pathogens (CLSI); settings: Staphylococcus aureus NRS384; for MIC: read-out: 100% inhibition; for MIC50: read-out: MIC50 (50%); for MIC80: read-out: MIC80 (80%)
Procedure, shortened: as §1

[15] = test system: Staphylococcus epidermidis NRS122; assay: MIC panel of challenge pathogens (CLSI); settings: Staphylococcus epidermidis NRS122; for MIC: read-out: 100% inhibition; for MIC50: read-out: MIC50 (50%); for MIC80: read-out: MIC80 (80%)
Procedure, shortened: as §1

[16] = test system: Staphylococcus epidermidis NRS7; assay: MIC panel of challenge pathogens (CLSI); settings: Staphylococcus epidermidis NRS7; for MIC: read-out: 100% inhibition; for MIC50: read-out: MIC50 (50%); for MIC80: read-out: MIC80 (80%)
Procedure, shortened: as §1

SMILES: Cc1cc(Cl)ccc1-c1cc(-c2nnn[nH]2)sc1-c1ccc(C)c2ccccc12 [DNM0576, 5-(4-(4-Chloro-2-methylphenyl)-5-(4-methylnaphthalen-1-yl)thiophen-2-yl)-1H-tetrazole]
- MIC (E. coli D22): > 125 µM
- MIC (Bacillus cereus NCTC6349): 0.5 mg/L (≈ 1.2 µM)
- MIC50 (Bacillus cereus NCTC6349): ≤ 0.25 mg/L
- MIC80 (Bacillus cereus NCTC6349): ≤ 0.25 mg/L
- MIC [1]: 1 mg/L (≈ 2.4 µM)
- MIC50 [1]: 1 mg/L (≈ 2.4 µM)
- MIC80 [1]: 1 mg/L (≈ 2.4 µM)
- MIC [2]: 0.5 mg/L (≈ 1.2 µM)
- MIC50 [2]: 0.25 mg/L (≈ 0.6 µM)
- MIC80 [2]: 0.25 mg/L (≈ 0.6 µM)
- MIC [3]: 0.5 mg/L (≈ 1.2 µM)
- MIC50 [3]: 0.5 mg/L (≈ 1.2 µM)
- MIC80 [3]: 0.5 mg/L (≈ 1.2 µM)
- MIC [4]: 0.5 mg/L (≈ 1.2 µM)
- MIC50 [4]: 0.5 mg/L (≈ 1.2 µM)
- MIC80 [4]: 0.5 mg/L (≈ 1.2 µM)
- MIC [5]: 0.5 mg/L (≈ 1.2 µM)
- MIC50 [5]: 0.5 mg/L (≈ 1.2 µM)
- MIC80 [5]: 0.5 mg/L (≈ 1.2 µM)
- MIC [6]: 0.5 mg/L (≈ 1.2 µM)
- MIC50 [6]: 0.5 mg/L (≈ 1.2 µM)
- MIC80 [6]: 0.5 mg/L (≈ 1.2 µM)
- MIC [7]: 0.5 mg/L (≈ 1.2 µM)
- MIC50 [7]: 0.5 mg/L (≈ 1.2 µM)
- MIC80 [7]: 0.5 mg/L (≈ 1.2 µM)
- MIC [8]: ≤ 0.25 mg/L
- MIC50 [8]: ≤ 0.25 mg/L
- MIC80 [8]: ≤ 0.25 mg/L
- MIC [9]: ≤ 0.25 mg/L
- MIC50 [9]: ≤ 0.25 mg/L
- MIC80 [9]: ≤ 0.25 mg/L
- MIC [10]: ≤ 0.25 mg/L
- MIC50 [10]: ≤ 0.25 mg/L
- MIC80 [10]: ≤ 0.25 mg/L
- MIC [11]: 0.5 mg/L (≈ 1.2 µM)
- MIC50 [11]: 0.25 mg/L (≈ 0.6 µM)
- MIC80 [11]: 0.5 mg/L (≈ 1.2 µM)
- MIC [12]: 0.5 mg/L (≈ 1.2 µM)
- MIC50 [12]: 0.5 mg/L (≈ 1.2 µM)
- MIC80 [12]: 0.5 mg/L (≈ 1.2 µM)
- MIC [13]: 0.5 mg/L (≈ 1.2 µM)
- MIC50 [13]: 0.5 mg/L (≈ 1.2 µM)
- MIC80 [13]: 0.5 mg/L (≈ 1.2 µM)
- MIC [14]: 0.5 mg/L (≈ 1.2 µM)
- MIC50 [14]: 0.5 mg/L (≈ 1.2 µM)
- MIC80 [14]: 0.5 mg/L (≈ 1.2 µM)
- MIC [15]: 2 mg/L (≈ 4.8 µM)
- MIC50 [15]: 2 mg/L (≈ 4.8 µM)
- MIC80 [15]: 2 mg/L (≈ 4.8 µM)
- MIC [16]: 0.5 mg/L (≈ 1.2 µM)
- MIC50 [16]: 0.25 mg/L (≈ 0.6 µM)
- MIC80 [16]: 0.5 mg/L (≈ 1.2 µM)

SMILES: Cc1ccc(Cl)cc1-c1cc(-c2nnn[nH]2)sc1-c1cc(Cl)ccc1C [DNM0508, 5-(4,5-Bis(5-chloro-2-methylphenyl)thiophen-2-yl)-1H-tetrazole]
- MIC (E. coli D22): > 125 µM
- MIC (Bacillus cereus NCTC6349): 0.5 mg/L (≈ 1.25 µM)
- MIC50 (Bacillus cereus NCTC6349): 0.5 mg/L (≈ 1.25 µM)
- MIC80 (Bacillus cereus NCTC6349): 0.5 mg/L (≈ 1.25 µM)
- MIC [1]: 2 mg/L (≈ 4.98 µM)
- MIC50 [1]: 2 mg/L (≈ 4.98 µM)
- MIC80 [1]: 2 mg/L (≈ 4.98 µM)
- MIC [2]: 1 mg/L (≈ 2.49 µM)
- MIC50 [2]: 1 mg/L (≈ 2.49 µM)
- MIC80 [2]: 1 mg/L (≈ 2.49 µM)
- MIC [3]: 1 mg/L (≈ 2.49 µM)
- MIC50 [3]: 1 mg/L (≈ 2.49 µM)
- MIC80 [3]: 1 mg/L (≈ 2.49 µM)
- MIC [4]: 1 mg/L (≈ 2.49 µM)
- MIC50 [4]: 1 mg/L (≈ 2.49 µM)
- MIC80 [4]: 1 mg/L (≈ 2.49 µM)
- MIC [5]: 1 mg/L (≈ 2.49 µM)
- MIC50 [5]: 1 mg/L (≈ 2.49 µM)
- MIC80 [5]: 1 mg/L (≈ 2.49 µM)
- MIC [6]: 1 mg/L (≈ 2.49 µM)
- MIC50 [6]: 1 mg/L (≈ 2.49 µM)
- MIC80 [6]: 1 mg/L (≈ 2.49 µM)
- MIC [7]: 1 mg/L (≈ 2.49 µM)
- MIC50 [7]: 1 mg/L (≈ 2.49 µM)
- MIC80 [7]: 1 mg/L (≈ 2.49 µM)
- MIC [8]: 1 mg/L (≈ 2.49 µM)
- MIC50 [8]: 0.5 mg/L (≈ 1.25 µM)
- MIC80 [8]: 1 mg/L (≈ 2.49 µM)
- MIC [9]: 1 mg/L (≈ 2.49 µM)
- MIC50 [9]: 1 mg/L (≈ 2.49 µM)
- MIC80 [9]: 1 mg/L (≈ 2.49 µM)
- MIC [10]: 1 mg/L (≈ 2.49 µM)
- MIC50 [10]: 1 mg/L (≈ 2.49 µM)
- MIC80 [10]: 1 mg/L (≈ 2.49 µM)
- MIC [11]: 1 mg/L (≈ 2.49 µM)
- MIC50 [11]: 0.5 mg/L (≈ 1.25 µM)
- MIC80 [11]: 1 mg/L (≈ 2.49 µM)
- MIC [12]: 1 mg/L (≈ 2.49 µM)
- MIC50 [12]: 0.5 mg/L (≈ 1.25 µM)
- MIC80 [12]: 1 mg/L (≈ 2.49 µM)
- MIC [13]: 1 mg/L (≈ 2.49 µM)
- MIC50 [13]: 1 mg/L (≈ 2.49 µM)
- MIC80 [13]: 1 mg/L (≈ 2.49 µM)
- MIC [14]: 1 mg/L (≈ 2.49 µM)
- MIC50 [14]: 1 mg/L (≈ 2.49 µM)
- MIC80 [14]: 1 mg/L (≈ 2.49 µM)
- MIC [15]: 8 mg/L (≈ 19.9 µM)
- MIC50 [15]: 4 mg/L (≈ 9.97 µM)
- MIC80 [15]: 8 mg/L (≈ 19.9 µM)
- MIC [16]: 1 mg/L (≈ 2.49 µM)
- MIC50 [16]: 0.5 mg/L (≈ 1.25 µM)
- MIC80 [16]: 0.5 mg/L (≈ 1.25 µM)
